From patent publication US20140377259A1, “METHODS FOR INHIBITING HIV-1 REPLICATION INVOLVING THE ADMINISTRATION OF AN ANTI-CCR5 RECEPTOR MONOCLONAL ANTIBODY AND SMALL MOLECULE CCR5 RECEPTOR ANTAGONIST” (CytoDyn Inc., priority 2005, published 2014)
Like-named read-outs stand apart in the source and are kept apart here.

What was measured:
[1] = system: AD101- and SCH-D-resistant HIV-1 variants; conditions: primary CD4+ T-cells; cited from earlier work
[2] = system: HIV-1 Env-mediated fusion (HeLa-EnvJRFL with CEM NKR-CCR5 cells); assay: HIV-1 RET cell-cell fusion assay (Part II, combination testing); type: cell-based; conditions: Drug 1 SCH-D with Drug 2 TAK-779, molar ratio 1:1
Protocol: Briefly, fluorescein octadecyl ester (F18; Molecular Probes, Eugene, Oreg.; 5 mg/ml in ethanol), was diluted 1:800 in DMEM labeling medium (DMEM; Invitrogen, Carlsbad, Calif.) with 10% fetal bovine serum (FBS; HyClone, Logan, Utah) and adjusted to an A506 of 0.34±10%. Octadecyl rhodamine B chloride (R18; Molecular Probes; 10 mg/ml in ethanol) was diluted 1:2050 in labeling medium and adjusted to an A565 of 0.52±10%. Both dyes were further diluted 2-fold by addition to cells in T75-cm^2 flasks. HeLa-EnvJRFL and CEM NKR-CCR5 cells were incubated overnight in F18- and R18-containing culture medium, respectively. […] The centrifugation/wash step was repeated twice, after which the cells were counted and concentrations adjusted to 1.5×10^6 cells/ml. […] The plates were then read on a fluorescence plate reader (Victor^2, Perkin Elmer, Boston, Mass.) using the excitation/emission filter combinations shown in Table 6.
The “% RET” was calculated according to the following formula after subtraction of background (blank) readings: […]
The “% Inhibition” was calculated according to the following formula: […]
Fifty percent inhibition (IC50) values were determined by fitting the inhibition data with a non-linear, four-parameter, variable slope equation (GraphPad Prism, 4.02; GraphPad Software, San Diego, Calif.). […]

[3] = system: reporter virus pseudotyped with HIV-1JR-FL envelope; type: cell-based
Protocol: (§1) Cultures were incubated for 72 h at 37° C. in DMEM containing 10% fetal bovine serum, 1 mg/mL puromycin, 0.3 mg/mL geneticin, antibiotics, and 0.5% DMSO. Luciferase activity (relative light units or RLU) was measured using BrightGlo reagent (Promega, Madison, Wis.) according to the manufacturer's instructions. Percent inhibition was calculated as: (1−RLU in the presence of inhibitor/RLU in the absence of inhibitor)×100.
(§2) Experimental design and data analysis were based on the combination index (CI) method (Chou et al. 1991; Chou et al. 1984). Compounds were tested individually and in combination at a fixed molar ratio over a range of serial dilutions. […] The mutually exclusive CI formula was used for combinations of CCR5 inhibitors, while the mutually non-exclusive formula was utilized for combinations of inhibitors to distinct targets (Chou et al. 1991). Each test was conducted 4-12 times. Synergy, additivity and antagonism are indicated by CI<1, CI=1 and CI>1, respectively.

[4] = system: reporter virus pseudotyped with HIV-1SF162 envelope; type: cell-based; conditions: 2nd inhibitor PRO 140, equimolar, 1:10 PRO 140 to zidovudine or nevirapine
Protocol: as §1, §2

CCR5 [5] = target: T1, CCR5 (Homo sapiens, UniProt P51681); assay: Competition binding: inhibition of 3H-UK-427,857 binding to CEM.NKR-CCR5 cells
T1 construct: host or cells: CEM.NKR (human T cell leukemia line), transduced with CCR5
T1 sequence (P51681 whole entry): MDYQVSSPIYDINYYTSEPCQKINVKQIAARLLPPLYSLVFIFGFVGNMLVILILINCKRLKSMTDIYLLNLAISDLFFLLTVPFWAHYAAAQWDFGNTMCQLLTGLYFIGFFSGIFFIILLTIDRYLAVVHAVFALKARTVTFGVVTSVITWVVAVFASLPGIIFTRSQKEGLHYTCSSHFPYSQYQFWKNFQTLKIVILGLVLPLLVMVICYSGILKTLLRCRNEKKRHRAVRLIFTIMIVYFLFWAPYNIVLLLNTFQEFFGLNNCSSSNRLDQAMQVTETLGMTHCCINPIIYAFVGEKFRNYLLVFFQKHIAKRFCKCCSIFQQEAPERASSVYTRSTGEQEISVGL
Excerpt: Cells were washed and then analyzed for radioactivity by scintillation counting.
The cells were washed in PBSA and lysed with 0.5N HCl prior to scintillation counting using a Wallac 1410 instrument.

CCR5 [6] = target: T1, CCR5; assay: Competition binding: inhibition of PRO 140-PE binding to CEM.NKR-CCR5 cells (flow cytometry); conditions: for Inhibition of PRO 140-PE binding: unlabeled inhibitor pre-incubated 30 min, 5 nM PRO 140-PE
Protocol: Inhibition was assessed on the basis of both MFI (A) and percent cells gated (B).
Azide was added to block CCR5 internalization during the assay.

[7] = single administration of solution; cited from earlier work
[8] = in vivo; cited from earlier work
HIV-1 = conditions: cited from earlier work
[9] = system: HIV-1JR-FL envelope-mediated membrane fusion; type: cell-based
Excerpt: HIV-1 envelope-mediated membrane fusion was examined using a fluorescence resonance energy transfer (RET) assay (Litwin et al. 1996) with modifications. Briefly, HeLa cells that stably express HIV-1JR-FL gp120/gp41 (Litwin et al. 1996) and CEM.NKR-CCR5 cells (NIH AIDS Research and Reference Reagent Program, (Spenlehauer et al. 2001; Trkola et al. 1999)) were labeled separately overnight with fluorescein octadecyl ester (F18; Molecular Probes, Eugene, Oreg.) and rhodamine octadecyl ester (R18; Molecular Probes), respectively. […] The CD4 mAb Leu3a was used as a control inhibitor, and percent inhibition was calculated as: (RET in the absence of inhibitor−RET in the presence of inhibitor)/(RET in the absence of inhibitor−RET in the presence of Leu3a)×100.
as §2
Twenty-two synergy comparisons (11 compounds×2 CI values) were made based on data generated in the membrane fusion assay, resulting in a corrected P value of 0.0023.

HIV-1JR-CSF = assay: hu-PBL-SCID mouse model of HIV-1 infection; type: in vivo, SCID mice; conditions: multiple doses after steady state viral levels
Protocol: SCID mice were reconstituted with normal human peripheral blood mononuclear cells and infected 2 weeks later with HIV-1JR-CSF. Multiple doses of PRO 140 were administered following attainment of steady state viral levels. Plasma viral loads pre- and post-injection are indicated.

[10] = parameters: species or system human; conditions: in vivo
Protocol: At the indicated times post-treatment, serum was collected, cryopreserved, and analyzed for PRO 140 levels. Data for individual patients are indicated.
Sera were diluted as appropriate and combined with L1.2-CCR5 cells, which are mouse pre-B lymphoma cells engineered to stably express human CCR5. […] Following incubation with test samples, cells were washed and combined with a FITC-labeled sheep antibody against human IgG4 (The Binding Site Limited, Cat. #AF009). Cells were washed again and analyzed by flow cytometry.
Serum was collected post-treatment, cryopreserved, and analyzed for PRO 140 levels. Peak serum concentrations ranged to […] at 0.1 mg/kg and […] at 0.5 mg/kg.

CCR5 [11] = target: T1, CCR5; assay: RANTES-induced calcium mobilization in L1.2-CCR5 cells; type: cell-based; conditions: FIG. 4
Excerpt: Similar results were obtained for […] and MIP-1β.

CCR5 lymphocytes = type: in vivo, human
Protocol: At the indicated times post-treatment, blood was collected and analyzed for CCR5 lymphocyte levels. The group mean values and standard deviations are indicated.
Whole blood specimens were combined separately with the indicated phycoerythrin-labeled anti-CCR5 antibodies or with appropriate isotype-control antibodies. Erythocytes were lysed and leukocytes were stabilized using the ImmunoPrep Reagent System (Beckman Coulter), and the cells were analyzed on a TQ Prep™ flow cytometry workstation (Beckman Coulter). Data were expressed as the percent of CCR5 cells relative to all cells gated in the analysis.
For up to 60 days post-treatment, at the times indicated in FIG. 6, blood was collected and analyzed for CCR5 lymphocyte levels.

[12] = envelope JRFL, 2nd inhibitor PRO 140, equimolar, 1:10 PRO 140 to zidovudine or nevirapine
[13] = labelled 1st inhibitor with 2nd inhibitor PRO 140, equimolar
[14] = labelled 1st inhibitor with 2nd inhibitor UK-427,857, equimolar

**Q.** With `CCO/N=C(\c1ccc(Br)cc1)C1CCN(C2(C)CCN(C(=O)c3c(C)cc[n+]([O-])c3C)CC2)CC1` [SCH-C] as the molecule, how does the “Sensitivity of AD101-resistant HIV-1 variant” value [1] read?
**A.** The value was “resistant”.

**Q.** What does the source list for `COC[C@@H](c1ccc(C(F)(F)F)cc1)N1CCN(C2(C)CCN(C(=O)c3c(C)ncnc3C)CC2)C[C@@H]1C` [SCH-D, 1-[(4,6-dimethyl-5pyrimidinyl)carbonyl]-4 [4-[2-methoxy-1(R)-4-(trifluoromethyl)phenyl]ethyl-3 (S)-methyl-1-piperazinyl]-4-methylpiperidine]?
**A.** Mean DR (Drug 2) [2]: 4.31 ± 1.82; CI50 [3, 12]: 0.47 ± 0.15; CI90 [3, 12]: 0.18 ± 0.04; Sensitivity of SCH-D-resistant HIV-1 variant [1]: resistant; CI50 [4]: 0.60 ± 0.17; CI90 [4]: 0.28 ± 0.11; Displacement of pre-bound 3H-UK-427,857 by unlabeled compound (CCR5 [5]): wasn't displaced; Effect on percent of cells gated for positive binding of PRO 140-PE (CCR5 [6]; FIG. 16B): little impact; Inhibition of PRO 140-PE binding (CCR5 [6]): modest levels of inhibition

**Q.** Which Safety and tolerability [7] does the source give for `CCCCOCCOc1ccc(-c2ccc3c(c2)/C=C(/C(=O)Nc2ccc(OCc4cncn4CCC)cc2)CCCN3CC(C)C)cc1` [TAK-652] here?
**A.** The Safety and tolerability was “safe and well tolerated”.

**Q.** What about the Oral bioavailability [8] of the same molecule?
**A.** The Oral bioavailability was “orally bioavailable”.

**Q.** And the “Anti-HIV-1 activity in vitro” value (HIV-1)?
**A.** The value was “nanomolar range”.

**Q.** Which results are given for `Cc1ccc(-c2ccc3c(c2)C=C(C(=O)Nc2ccc(C[N+](C)(C)C4CCOCC4)cc2)CCC3)cc1.[Cl-]` [TAK-779]?
**A.** Inhibition of HIV-1 pseudovirus entry ([3]; compound alone, data not shown): Neither TAK-779 nor RANTES mediated consistent, high-level inhibition; Oral bioavailability [8]: poor oral bioavailability

**Q.** With “RANTES: CC-chemokine that serves as a natural ligand for CCR5” as the molecule, how does the CI50 [9, 13] read?
**A.** The CI50 was 0.59 ± 0.08.

**Q.** What about the CI90 [9, 13] of the same molecule?
**A.** The CI90 was 0.43 ± 0.05.

**Q.** And the CI50 [9, 14]?
**A.** The CI50 was 0.48 ± 0.03.

**Q.** And the CI90 [9, 14]?
**A.** The CI90 was 0.18 ± 0.01.

B1: PRO 140: humanized IgG4,κ anti-CCR5 monoclonal antibody, humanized version of murine mAb PA14 (antibody, chains of the INN, looked up, V domains shown)
VH: EVQLVESGGGLVKPGGSLRLSCAASGYTFSNYWIGWVRQAPGKGLEWIGDIYPGGNYIRNNEKFKDKTTLSADTSKNTAYLQMNSLKTEDTAVYYCGSSFGSNYVFAWFTYWGQGTLVTVSS
VL: DIVMTQSPLSLPVTPGEPASISCRSSQRLLSSYGHTYLHWYLQKPGQSPQLLIYEVSNRFSGVPDRFSGSGSGTDFTLKISRVEAEDVGVYYCSQSTHVPLTFGQGTKVEIK
**Q.** Which results are given for B1?
**A.** Control of viral replication (plasma viral load) (HIV-1JR-CSF): prolonged control of viral replication; Dose dependence of serum concentrations [10]: increased proportionally with dose level; Effect on RANTES-induced calcium mobilization versus HIV-1JR-FL replication in PBMC (CCR5 [11]): blocks HIV-1 but not chemokine signaling; Overall number of CCR5 lymphocytes (CTC5 binding) (CCR5 lymphocytes; in vivo, iv, 2 mg/kg): no decrease; Binding of antibody 2D7 (CCR5 lymphocytes not coated with PRO 140) (CCR5 lymphocytes; single 2 mg/kg intravenous infusion): significantly decreased; Displacement of pre-bound 3H-UK-427,857 by unlabeled compound (CCR5 [5]; cells pre-incubated with 2 nM 3H-UK-427,857, unlabeled compound 30 min): wasn't displaced; Inhibition of PRO 140-PE binding (CCR5 [6]): Complete inhibition
